Tested on: control human primary myoblasts
Assay: Expression microarray of primary myoblasts transduced with lentivirus carrying DUX4-fl, DUX4-s or GFP
Description: Primary human myoblasts were collected and cultured as previously described (Snider et al., 2010). Primary myoblasts were maintained at or below 70% confluency for proliferation. For differentiation, cells were allowed to reach 95-100% confluency in growth medium. Once confluency was reached, the cells were changed to differentiation medium (F10 media supplemented with 1% horse serum, 10 μg/mL insulin, and 10 μg/mL transferrin, penicillin/streptomycin) and maintained for 4 days. Human RD cells were grown in DMEM in 10% bovine calf serum (Hyclone) and penicillin/streptomycin. The primary myoblasts were transduced with lentivirus carrying DUX-fl, DUX4- or GFP (MOI=15).
Expression microarrays were performed on the transduced cells at 24 hours after transduction as follows. […] Samples were analyzed by Illumina Human Whole Genome microarrays. Probe intensities were corrected, normalized, and summarized by the Lumi package of Bioconductor (Du et al., 2008). Differentially expressed genes were identified by the LIMMA package of Bioconductor (Wettenhall and Smyth, 2004). Gene set enrichment analysis (GSEA) was performed using the Bioconductor GOstats package (Falcon and Gentleman, 2007).

## DUX4-fl: full-length DUX4 protein (SEQ ID NO:110), expressed from lentiviral or pCS2 vectors or in vitro translated
log2 fc vs lenti-GFP, 24 h
  full_fc ART3: 4.363
  full_fc C6orf148: 6.759
  full_fc C12orf50: 4.522
  full_fc CA2: 6.091
  full_fc CCNA1: 7.526
  full_fc CSAG3: 5.871
  full_fc DEFB103A: 6.442
  full_fc ENTPD8: 4.073
  full_fc HBA1: 4.787
  full_fc HBA2: 4.721
  full_fc HIST2H3A: 4.945
  full_fc KHDC1L: 8.012
  full_fc LOC136157: 8.299
  full_fc LOC196120: 8.179
  full_fc LOC284428: 8.023
  full_fc LOC340096: 7.382
  full_fc LOC340970: 8.316
  full_fc LOC342900: 7.391
  full_fc LOC390031: 8.331
  full_fc LOC391742: 5.733
  full_fc LOC391764: 5.821
  full_fc LOC391766: 5.724
  full_fc LOC391767: 5.492
  full_fc LOC391769: 8.19
  full_fc LOC399939: 6.931
  full_fc LOC399940: 4.727
  full_fc LOC401860: 4.272
  full_fc LOC402199: 4.392
  full_fc LOC402207: 4.903
  full_fc LOC440040: 7.534
  full_fc LOC440563: 5.312
  full_fc LOC441584: 7.781
  full_fc LOC642127: 6.112
  full_fc LOC642148: 6.851
  full_fc LOC642219: 4.799
  full_fc LOC642362: 8.016
  full_fc LOC643263: 8.345
  full_fc LOC643445: 8.25
  full_fc LOC645558: 4.803
  full_fc LOC645669: 8.202
  full_fc LOC646066: 4.391
  full_fc LOC646103: 4.658
  full_fc LOC646698: 6.012
  full_fc LOC646754: 5.11
  full_fc LOC647827: 4.053
  full_fc LOC651308: 8.169
  full_fc LOC653192: 8.228
  full_fc LOC653656: 7.897
  full_fc LOC653657: 7.857
  full_fc LOC654101: 5.034
  full_fc LOC729368: 5.416
  full_fc LOC729384: 6.832
  full_fc LOC729458: 8.247
  full_fc LOC729516: 5.955
  full_fc LOC729694: 4.029
  full_fc LOC729700: 4.817
  full_fc LOC729706: 4.227
  full_fc LOC729731: 5.007
  full_fc LOC730974: 7.715
  full_fc LOC732393: 4.637
  full_fc LOC100131392: 6.976
  full_fc LOC100131539: 4.629
  full_fc LOC100133446: 4.635
  full_fc LOC100133984: 6.204
  full_fc LOC100134006: 7.087
  full_fc LOC100134199: 8.048
  full_fc MBD3L2: 7.623
  full_fc NP: 6.961
  full_fc NXF1: 4.233
  full_fc OR2T34: 4.519
  full_fc PPP2R2B: 4.13
  full_fc PRAMEF1: 8.072
  full_fc PRAMEF2: 6.439
  full_fc PRAMEF4: 7.06
  full_fc PRAMEF5: 7.35
  full_fc PRAMEF6: 5.826
  full_fc PRAMEF7: 7.631
  full_fc PRAMEF9: 7.131
  full_fc PRAMEF10: 6.064
  full_fc PRAMEF11: 5.94
  full_fc PRAMEF12: 7.802
  full_fc PRAMEF13: 7.422
  full_fc PRAMEF15: 7
  full_fc PRAMEF17: 4.223
  full_fc PRAMEF20: 4.795
  full_fc RFPL1: 6.264
  full_fc RFPL1S: 8.396
  full_fc RFPL2: 7.293
  full_fc RFPL3: 8.144
  full_fc RFPL4A: 4.348
  full_fc RFPL4B: 8.34
  full_fc RN5S9: 4.191
  full_fc SFRS2B: 4.215
  full_fc SLC34A2: 5.514
  full_fc SPRYD5: 8.045
  full_fc THOC4: 4.035
  full_fc TPRX1: 4.483
  full_fc TRIM43: 5.806
  full_fc TRIM48: 7.88
  full_fc TRIM49: 6.551
  full_fc TRIM53: 4.778
  full_fc TRIM64: 4.943
  full_fc ZNF217: 4.114
  full_fc ZNF296: 5.536
  full_fc ZNF705A: 6.832
  full_fc ZSCAN4: 8.322
Log 2fc≧5
  number of genes increased 32-fold or more: 72 genes
Vs lenti-GFP, 24 h
  Log2 Fc AMACR: 2.7 log2
  Log2 Fc ARIH1: 2.2 log2
  Log2 Fc ARS2: 2.6 log2
  Log2 Fc CBARA1: 2.1 log2
  Log2 Fc CD24: 2.6 log2
  Log2 Fc CSAG3: 5.9 log2
  Log2 Fc CSE1L: 2.9 log2
  Log2 Fc CWC15: 2.6 log2
  Log2 Fc CXADR: 2.5 log2
  Log2 Fc CXCR4: 2.0 log2
  Log2 Fc DBR1: 3.4 log2
  Log2 Fc DEFB103B: 6.4 log2
  Log2 Fc FBXO33: 3.2 log2
  Log2 Fc FGFR3: 3.1 log2
  Log2 Fc FLJ45337: 3.7 log2
  Log2 Fc GTF2F1: 3.2 log2
  Log2 Fc HNRNPCL1: 3.5 log2
  Log2 Fc HOXB2: 2.2 log2
  Log2 Fc HSPA2: 3.7 log2
  Log2 Fc ID2: 2.3 log2
  Log2 Fc IFRD1: 3.0 log2
  Log2 Fc JUP: 3.2 log2
  Log2 Fc KHDC1L: 8.0 log2
  Log2 Fc MBD3L2: 7.6 log2
  Log2 Fc MED26: 2.1 log2
  Log2 Fc MGC10997: 2.4 log2
  Log2 Fc PABPN1: 2.6 log2
  Log2 Fc PELI1: 2.9 log2
  Log2 Fc PNMA6B: 3.6 log2
  Log2 Fc PRAMEF1: 8.1 log2
  Log2 Fc PVRL3: 2.2 log2
  Log2 Fc RMRP: 2.3 log2
  Log2 Fc RNGTT: 2.0 log2
  Log2 Fc RPPH1: 2.0 log2
  Log2 Fc RRN3: 2.1 log2
  Log2 Fc SFRS2B: 4.2 log2
  Log2 Fc SFRS17A: 2.5 log2
  Log2 Fc SIAH1: 3.7 log2
  Log2 Fc SLC2A14: 2.4 log2
  Log2 Fc SLC34A2: 5.5 log2
  Log2 Fc SNIP1: 2.1 log2
  Log2 Fc SON: 2.1 log2
  Log2 Fc SPRYD5: 8.0 log2
  Log2 Fc SPTY2D1: 3.3 log2
  Log2 Fc TFIP11: 3.2 log2
  Log2 Fc THOC4: 4.0 log2
  Log2 Fc TPRX1: 4.5 log2
  Log2 Fc TRIM23: 2.2 log2
  Log2 Fc TRIM43: 5.8 log2
  Log2 Fc USP29: 2.6 log2
  Log2 Fc ZNF217: 4.1 log2
  Log2 Fc ZNF705A: 6.8 log2
  Log2 Fc ZNHIT6: 3.5 log2
  Log2 Fc ZSCAN2: 2.2 log2
  Log2 Fc ZSCAN4: 8.3 log2

Source: patent US20140242093A1, “METHODS AND COMPOSITIONS FOR MODULATING THE INNATE IMMUNE RESPONSE AND/OR MYOGENESIS IN A MAMMALIAN SUBJECT” (FRED HUTCHINSON CANCER RESEARCH CENTER, priority 2011, published 2014)
